Results published in patent publication US9089561B2, “Methods for treating depression, neurodegeneration, inhibiting amyloid β deposition, delaying senescence, and extending life spans with heterocyclic compounds” (ZENYAKU KOGYO KABUSHIKI KAISHA, priority 2006, dated 2015).

Experiments:
[1] = tested on: senescene accelerated mice (SAMP8); experiment: survival rate / average life span of senescene accelerated mice; assay type: in vivo; settings: 0.01 mg/kg/day in drinking water, vs control group given tap water, at any age in month
Experimental: (§1) Senescene accelerated mice (SAMP8) (male, 8 months old at the beginning of the study) were used in the study.
(§2) Compound 24 dissolved in tap water was given to the senescene accelerated mice at a dosage of 0.001, 0.01, or 0.1 mg/kg/day as drinking water. Tap water was given to the control mice as drinking water.
FIG. 6 is a graphical representation showing the influence of Compound 24 on the survival rate of senescene accelerated mice (SAMP8). The age in months of mice is plotted as abscissa and the survival rate (%) is plotted as ordinate.

[2] = preclinical study (safety)
[3] = tested on: gerbil transient forebrain ischemia model; experiment: delayed neuronal death in hippocampus CA1 region, gerbil transient forebrain ischemia model; assay type: in vivo; settings: four days after reperfusion
Experimental: Gerbils (male, weighing approximately 55 to 80 g) were pinched with an exposured bilateral common carotid artery by microclip to cause the cerebral ischemia under 2% halothane inhalation anesthesia. After four minutes of ischemia, the microclip was removed to reperfuse the cerebral ischemia and the anesthesia was stopped. Four days after the reperfusion, the brain was removed and formalin-fixed. Sections of 4 μm in thickness were prepared and stained with hematoxylin-eosin. Surviving cells in the entire hippocampus CA1 field on both sides of each specimen were counted using a micrometer under the microscope. The number of surviving cells per 0.5 mm was obtained.
Compound 24 was suspended in 1% HPC and orally given one hour before the cerebral ischemia and 5 hours after the reperfusion. Then, two doses per day were given from the following day to the third day since the perfusion. The surviving cell count in the hippocampus CA1 field was expressed by the average±standard error. The Mann-Whitney's U test was used to obtain significant differences. The effective oral dosage of Compound 24 was plotted as abscissa and the surviving cell count/0.5 mm was plotted as ordinate.

[4] = tested on: senescene accelerated mice (SAMP8); experiment: amyloid β deposition in the hippocampus by amyloid β immunohistochemistry; assay type: in vivo; settings: 0.002, 0.01 and 0.1 mg/kg/day in drinking water for 2 months, vs tap water
Experimental: Senescene accelerated mice (SAMP8) (male, 8 months old at the beginning of the study) were used for experiment. […] Eight weeks after the dosing, the mouse brain was removed, Methacarn-fixed (methanol:chloroform: acetic acid=6:3:1), and paraffin-embedded. Then, sections of 8 μm in thickness were prepared using a microtome.
The sections were immunostained with streptavidin-biotin using a VECTASTATIN ABC kit. After one hour of incubation in 10% normal goat serum, the anti-amyloid β (Aβ) antibody was diluted with PBS to ten fold and incubated at 4° C. overnight. The following day, PBS rinsing, 1.5 hours of incubation with biotinylated anti-rabbit secondary antibody, PBS rinsing, and 1.5 hours of incubation with peroxidase-labeled streptavidin were conducted. The immunoreaction was visualized with DAB and specimens were prepared.
Immunoreactive Aβ-like granules in the hippocampus were counted under the microscope. The Aβ-like immunoreactive granule was observed as brown deposits in the hippocampus. The count was made for one section per individual.

[5] = tested on: senescene accelerated mice (SAMP8); experiment: grading scores as aging indicator in senescene accelerated mice; assay type: in vivo
Experimental: as §1, §2
As an aging indicator of senescene accelerated mice, grading scores (Takeda et al., 1981) were measured after 0, 4, 8, 12, and 16 weeks of drinking water dosing in a short term study and after 12, 16, 20, 24, 28, and 32 weeks of drinking water dosing in a long term study.

Compound: O=C1N=C2C=CC=CN2C12Cc1ccccc1C2 [Compound 24, spiro[imidazo[1,2-a]pyridin-2(3H)-one-3,2′-indan]]
- average life span (survival rate) [1]: average life span was extended
- safety in a preclinical study [2]: highly safe
- surviving cell count in the hippocampus CA1 field ([3]; 0.01 mg/kg oral, n=7, average±standard error): 27.8±1.9 /0.5 mm
- surviving cell count in the hippocampus CA1 field ([3]; 0.1 mg/kg oral, n=8, average±standard error): 32.5±9.4 /0.5 mm
- surviving cell count in the hippocampus CA1 field ([3]; 1 mg/kg oral, n=9, average±standard error): 44.3±9.4 /0.5 mm
- number of amyloid β-immunoreactive granules in the hippocampus [4]: significantly (*) decreased
- grading score vs control, long term study ([5]; 0.01 mg/kg/day in drinking water, Weeks 20 to 32): significant differences (*, **)
- grading score vs control, long term study ([5]; 0.1 mg/kg/day in drinking water, Weeks 16 to 32): significant differences (*, **)
- grading score vs control, short term study ([5]; Week 16, 0.001, 0.01 and 0.1 mg/kg/day in drinking water): Significant differences (*)
- grading score (aging indicator), short term study ([5]; in drinking water, up to 16 weeks, score of water group increased after Week 12): did not increase
